Source: patent US11219625B2, “Inhibitors of N-linked glycosylation and methods using same” (YALE UNIVERSITY, priority 2015, dated 2022)

How the values were obtained:
Type in all cases: cell-based
A549 cells = assay: MTT proliferation assay, A549; conditions: A549, 10 μM NGI-1 or 1 μM tunicamycin
Experimental: FIGS. 4A-4H illustrate the finding that NGI-1 blocks RTK driven proliferation. FIG. 4A illustrates western blot analysis of EGFR phosphorylation (Y1173) and gel mobility in PC9 (EGFR-mutant) and A549 (k-ras mutant) NSCLC cells after 10 μM NGI-1 treatment for 24 h. […] Actin expression was used as a control for protein loading. FIG. 4B illustrates MTT assays results of PC9 following treatment with 10 μM NGI-1 or 1 μM tunicamycin for a total of 5 d. Relative proliferation id reported in fold increase from day 0. FIG. 4C illustrates MTT assays results of A549 following treatment with 10 μM NGI-1 or 1 μM tunicamycin for a total of 5 d. Relative proliferation id reported in fold increase from day 0. FIG. 4D illustrates protein phosphorylation profiles of PC9 cells analyzed by phospho-protein array to assess the response of PC9 to 10 μM NGI-1 for 24 h. FIG. 4E illustrates protein phosphorylation profiles of A549 cells analyzed by phospho-protein array to assess the response of A549 to 10 μM NGI-1 for 24 h. […]
Growth rates were determined by CellTiter 96 NonRadioactive Cell Proliferation Assay (Promega; Madison, Wis. USA) according to the manufacturer's directions. […] Cell numbers were estimated after 0, 3, and 5 days by adding MTT [(3-(4,5-Dimethylthiazol-2-yl)-2,5-diphenyltetrazolium bromide] reagent to the wells 4 hours before taking the spectrophotometric reading (absorbance at 570 nm).

H3255 cells [1] = assay: MTT proliferation assay, H3255; conditions: H3255, 10 μM NGI-1, 5 d, p<0.05
Experimental: (§1) FIGS. 7A-7D illustrate EGFR kinase domain mutant cell lines growth inhibition and cell cycle arrest response to NGI-1. FIG. 7A illustrates MTT assays to determine the effects of NGI-1 on growth of H3255 cells. FIG. 7B illustrates MIT assays to determine the effects of NGI-1 on growth of HCC827 cells. EGFR kinase domain mutant cell lines H3255 and HCC827 cells were untreated or treated with 10 μM NGI-1 for 5 d. […] FIG. 7C illustrates cell cycle distribution of H3255 after 24 h NGI-1 treatment for 24 h determined by flow cytometry. FIG. 7D illustrates cell cycle distribution of HCC827 after 24 h NGI-1 treatment for 24 h determined by flow cytometry.
(§2) Growth rates were determined by CellTiter 96 NonRadioactive Cell Proliferation Assay (Promega; Madison, Wis. USA) according to the manufacturer's directions. Briefly, NSCLC cells (2×10^3) untreated or treated with […] NGI-1 or 1 μM Tn, were seeded in triplicates in 96-wells plates and grown in culture medium containing […]. Cell numbers were estimated after 0, 3, and 5 days by adding MTT [(3-(4,5-Dimethylthiazol-2-yl)-2,5-diphenyltetrazolium bromide] reagent to the wells 4 hours before taking the spectrophotometric reading (absorbance at 570 nm).

[2] = system: lipid linked oligosaccharides (LLOs); assay: FACE analysis of lipid linked oligosaccharides; conditions: p<0.01
Experimental: Fluorophore assisted carbohydrate electrophoresis (FACE) was performed as previously described (Gao, et al., Glycobiology 2002, 12, 353-360; Gao, et al., J Biol Chem 2005, 280, 17901-17909). Control (Ac-Gln-Tyr-Thr-CONH2) and acceptor (Ac-Asn-Tyr-Thr-CONH2) peptides were used for permeabilized cell experiments. Metabolic labeling of Hela cells, transfection of prosaposin (pSAP) and steroid hormone binding globulin (SHBG) vectors, and knockdown of SIT3A and STT3B to monitor N-linked glycosylation knockdown were performed as described (Shrimal, et al., J Cell Biol 2013, 201, 81-95). Western blot analysis was performed as previously described (Bennett, et al., Transl Oncol 2013, 6, 382-391). The following primary antibodies were used: rabbit anti-EGFR (sc-03; Santa Cruz Biotechnology; 1:1000), rabbit anti-phospho (Tyr1173) EGF Receptor (Cell Signaling; 1:1000), rabbit anti-p21 Waf1/Cip1 (12D1; Cell Signaling; 1:1000), rabbit anti-Cyclin D1 (Cell Signaling; 1:1000), mouse anti-β-Actin (8H10D10; Cell Signaling; 1:1000). For phospho-protein array analysis, PC9 and A549 cells were cultured in 6-well plates in serum-containing medium and treated with or without 10 μM NGI-1 for 24 hours. […]

HCC827 cells = assay: MTT proliferation assay, HCC827; conditions: HCC827, 10 μM NGI-1, 5 d, p<0.05
Experimental: as §1, §2

H3255 cells [3] = assay: Cell cycle distribution by flow cytometry, H3255; conditions: H3255, NGI-1 24 h, p<0.05
Experimental: as §1
For the assessment of cell cycle distribution, 1×10^6 cells were collected, washed once with ice-cold PBS and fixed in ice-cold 70% ethanol overnight at −20° C. Thereafter, cells were washed twice with PBS and incubated for 30 min at room temperature in 200 μL of Guava Cell Cycle Reagent (Guava Technologies). Cytofluorometric acquisitions were performed on a LSRII cytometer (BD Biosciences). First-line analysis was performed with Flow Jo software, upon gating on the events characterized by normal forward and side scatter parameters and discrimination of doublets in a FSC-A vs. FSC-H bivariate plot. Approximately 30,000 cells were analyzed per experiment, and the mean value was obtained from 3 independent assays.

## Cc1cnc(NC(=O)c2cc(S(=O)(=O)N(C)C)ccc2N2CCCC2)s1 [NGI-1, 5-(N,N-Dimethylsulfamoyl)-N-(5-methylthiazol-2-yl)-2-(pyrrolidin-1-yl)benzamide]
A549 cells
  effect on proliferation, MTT: continued to proliferate
H3255 cells [1]
  reduction of proliferation, MTT: > 45%
[2]
  increase of Glc3Man9Glcnac2 LLO levels: 31%
HCC827 cells
  reduction of proliferation, MTT: > 45%
H3255 cells [3]
  cell cycle distribution: undergo G1 arrest
